Results as given in ChEMBL document CHEMBL5335865, “Macrocyclic Oxindole Peptide Epoxyketones-A Comparative Study of Macrocyclic Inhibitors of the 20S Proteasome” (ACS Med Chem Lett, 2024).
The source made the active and inactive calls. No cut-off for these calls is given here.

Columns and labels:
[1] = target: T1, 20S proteasome (Homo sapiens) (UniProt P49721+P20618+P28074+P28062+P28065+P28072+P25786+P25787+P25788+P25789+P28066+P60900+O14818+Q8TAA3+P40306+A5LHX3+P49720+P28070+Q99436); assay: Inhibition of human 20S proteasome PGPH-like activity using Cbz-LLE-AMC as a fluorogenic substrate at 130 uM measured every 20 seconds for 10 mins by fluorescence based assay; format: protein-complex assay
[2] = target: Cathepsin B (Homo sapiens) (UniProt P07858); assay: Inhibition of human liver cathepsin B using Cbz-Arg-Arg-AMC as fluorogenic substrate at 130 uM measured every 20 seconds for 10 mins by fluorescence based assay
Chymotrypsin = Chymotrypsin (UniProt Q99895+P17538+P40313+Q6GPI1); assay: Inhibition of chymotrypsin (unknown origin) using Suc-LLVY-AMC as fluorogenic substrate at 130 uM measured every 20 seconds for 10 mins by fluorescence based assay; format: protein assay; conditions: Homo sapiens
[3] = target: T1, 20S proteasome (Homo sapiens); assay: Inhibition of human 20S proteasome trypsin-like activity using Ac-RLR-AMC as a fluorogenic substrate at 130 uM measured every 20 seconds for 10 mins by fluorescence based assay; format: protein-complex assay
[4] = target: Calpain-2 catalytic subunit (Homo sapiens) (UniProt P17655); assay: Inhibition of m-calpain (unknown origin) using Suc-LLVY-AMC as fluorogenic substrate at 130 uM measured every 20 seconds for 10 mins by fluorescence based assay
Calpain-2 catalytic subunit (Homo sapiens), sequence (P17655 whole entry, looked up): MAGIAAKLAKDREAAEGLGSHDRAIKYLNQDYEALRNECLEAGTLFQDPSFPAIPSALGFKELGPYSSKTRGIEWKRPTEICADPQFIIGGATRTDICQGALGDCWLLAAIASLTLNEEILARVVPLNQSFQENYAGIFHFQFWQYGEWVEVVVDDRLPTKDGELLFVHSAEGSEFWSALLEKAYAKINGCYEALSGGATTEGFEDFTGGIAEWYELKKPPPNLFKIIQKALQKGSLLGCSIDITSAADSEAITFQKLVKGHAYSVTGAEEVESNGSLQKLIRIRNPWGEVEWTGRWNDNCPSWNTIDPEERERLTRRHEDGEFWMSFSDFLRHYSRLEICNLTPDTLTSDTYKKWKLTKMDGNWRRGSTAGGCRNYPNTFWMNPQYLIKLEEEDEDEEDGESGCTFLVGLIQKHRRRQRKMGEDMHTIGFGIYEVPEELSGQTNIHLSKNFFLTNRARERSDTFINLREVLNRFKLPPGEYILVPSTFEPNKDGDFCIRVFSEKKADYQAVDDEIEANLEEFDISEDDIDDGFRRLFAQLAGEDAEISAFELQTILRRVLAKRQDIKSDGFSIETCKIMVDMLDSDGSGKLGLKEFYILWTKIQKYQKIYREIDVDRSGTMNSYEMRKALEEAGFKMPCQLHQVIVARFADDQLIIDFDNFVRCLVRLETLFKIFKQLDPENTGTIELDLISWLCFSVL

Chymotrypsin, sequence (P17538 whole entry, looked up): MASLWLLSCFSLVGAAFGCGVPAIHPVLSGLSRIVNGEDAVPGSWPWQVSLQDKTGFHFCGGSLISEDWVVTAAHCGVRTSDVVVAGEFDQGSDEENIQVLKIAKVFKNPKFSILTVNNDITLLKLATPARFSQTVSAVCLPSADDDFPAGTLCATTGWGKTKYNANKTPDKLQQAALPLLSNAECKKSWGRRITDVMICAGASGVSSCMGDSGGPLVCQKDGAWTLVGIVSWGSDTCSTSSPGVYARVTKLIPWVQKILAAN
Chymotrypsin, sequence (P40313 whole entry, looked up): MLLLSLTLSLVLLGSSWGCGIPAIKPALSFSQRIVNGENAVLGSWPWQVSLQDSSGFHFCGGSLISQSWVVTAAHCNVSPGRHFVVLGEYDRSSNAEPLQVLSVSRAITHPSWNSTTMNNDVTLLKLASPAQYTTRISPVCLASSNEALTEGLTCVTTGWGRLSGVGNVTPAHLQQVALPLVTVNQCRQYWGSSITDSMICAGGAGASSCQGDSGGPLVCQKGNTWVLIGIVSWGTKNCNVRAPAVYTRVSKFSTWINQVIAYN
Chymotrypsin, sequence (Q6GPI1 whole entry, looked up): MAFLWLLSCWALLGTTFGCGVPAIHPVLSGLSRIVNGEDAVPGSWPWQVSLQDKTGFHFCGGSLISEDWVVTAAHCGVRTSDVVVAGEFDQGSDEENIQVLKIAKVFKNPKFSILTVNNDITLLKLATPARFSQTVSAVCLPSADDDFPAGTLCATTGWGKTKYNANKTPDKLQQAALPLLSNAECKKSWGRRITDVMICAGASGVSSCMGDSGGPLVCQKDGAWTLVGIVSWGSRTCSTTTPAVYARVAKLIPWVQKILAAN
Chymotrypsin, sequence (Q99895 whole entry, looked up): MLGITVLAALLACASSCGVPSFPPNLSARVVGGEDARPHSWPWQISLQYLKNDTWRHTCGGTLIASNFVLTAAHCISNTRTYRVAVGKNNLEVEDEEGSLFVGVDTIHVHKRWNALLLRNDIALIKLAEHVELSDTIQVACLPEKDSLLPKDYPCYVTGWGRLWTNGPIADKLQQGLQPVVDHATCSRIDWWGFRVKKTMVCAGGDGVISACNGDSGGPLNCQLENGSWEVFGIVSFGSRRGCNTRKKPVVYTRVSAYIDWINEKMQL

SMILES | inhibition [1] | inhibition [2] | inhibition (Chymotrypsin) | inhibition [3] | inhibition [4]
CC(C)C[C@H](NC(=O)[C@H](CCc1ccccc1)NC(=O)CN1CCOCC1)C(=O)N[C@@H](Cc1ccccc1)C(=O)N[C@@H](CC(C)C)C(=O)[C@@]1(C)CO1 |  | inactive | inactive | inactive | inactive
CC(C)C[C@@H](C=O)NC(=O)[C@@H]1Cc2ccc(cc2)Oc2cc(ccc2[N+](=O)[O-])C[C@H](NC(=O)OCc2ccccc2)C(=O)N[C@@H](CC(C)C)C(=O)N1 |  |  | inactive | inactive | 
CC(=O)N[C@@H](Cc1ccc([N+](=O)[O-])c(F)c1)C(=O)N[C@@H](CC(C)C)C(=O)N[C@@H](CC1C(=O)Nc2ccc(O)cc21)C(=O)N[C@@H](CC(C)C)C(=O)[C@@]1(C)CO1 (some centres undefined) | inactive | inactive | inactive | inactive | inactive
CC(=O)N[C@H]1Cc2ccc([N+](=O)[O-])c(c2)Oc2ccc(cc2)C[C@@H](C(=O)N[C@@H](CC(C)C)C(=O)[C@@]2(C)CO2)NC(=O)[C@H](CC(C)C)NC1=O | inactive | inactive | inactive | inactive | inactive

The next lines start with the values.

inhibition [1] | inhibition [2] | inhibition (Chymotrypsin) | inhibition [3] | inhibition [4] | SMILES
inactive | inactive | inactive | inactive | inactive | CC(=O)N[C@H]1Cc2ccc([N+](=O)[O-])c(c2)Oc2ccc(cc2)CC[C@@H](C(=O)N[C@@H](CC(C)C)C(=O)[C@@]2(C)CO2)NC(=O)[C@H](CC(C)C)NC1=O
inactive | inactive | inactive |  | inactive | CC(=O)N[C@H]1Cc2ccc([N+](=O)[O-])c(c2)Oc2ccc3c(c2)C(C[C@@H](C(=O)N[C@@H](CC(C)C)C(N)=O)NC(=O)[C@H](CC(C)C)NC1=O)C(=O)N3 (some centres undefined)
 | inactive | inactive | inactive | inactive | CC(=O)N[C@H]1Cc2ccc([N+](=O)[O-])c(c2)Oc2ccc3c(c2)C(C[C@@H](C(=O)N[C@@H](CC(C)C)C(=O)[C@@]2(C)CO2)NC(=O)[C@H](CC(C)C)NC1=O)C(=O)N3 (some centres undefined)
